Assay results: ChEMBL document CHEMBL5050844 (2019)
Values belong to the compound of their own block, whether it stands above or below them.

Legend:
[1] = Induction of anti-CD3/CD28 antibodies-stimulated human T cell activation at 1 uM assessed fold increase in CD25 expression measured by ELISA assay; format: functional, T cell line
[2] = Induction of anti-CD3/CD28 antibodies-stimulated human T cell activation at 0.3 uM assessed fold increase in IL-2 secretion measured by ELISA assay; format: functional, T cell line
[3] = Induction of anti-CD3/CD28 antibodies-stimulated human T cell activation at 1 uM assessed fold increase in IL-2 secretion measured by ELISA assay; format: functional, T cell line
[4] = Induction of anti-CD3/CD28 antibodies-stimulated human T cell activation at 0.3 uM assessed fold increase in CD25 expression measured by ELISA assay; format: functional, T cell line
[5] = target: E3 ubiquitin-protein ligase CBL-B (Homo sapiens, UniProt Q13191); test: Inhibition of N-terminal Avi-tagged human CBL-B (36 to 427 residues) incubated with 60 nM Src kinase for 1.5 hrs followed by incubation with fluorescently labeled UbcH5B-Ub for 1 hr and measured by TR-FRET assay; format: single protein
[6] = Induction of anti-CD3 antibodies-stimulated human T cell activation at 1 uM assessed fold increase in CD25 expression measured by ELISA assay; format: functional, T cell line; further: reference of the scale not given here
[7] = Induction of anti-CD3 antibodies-stimulated human T cell activation at 1 uM assessed fold increase in IL-2 secretion measured by ELISA assay; format: functional, T cell line; further: reference of the scale not given here

E3 ubiquitin-protein ligase CBL-B, sequence (Q13191 whole entry, the tested form may be a part): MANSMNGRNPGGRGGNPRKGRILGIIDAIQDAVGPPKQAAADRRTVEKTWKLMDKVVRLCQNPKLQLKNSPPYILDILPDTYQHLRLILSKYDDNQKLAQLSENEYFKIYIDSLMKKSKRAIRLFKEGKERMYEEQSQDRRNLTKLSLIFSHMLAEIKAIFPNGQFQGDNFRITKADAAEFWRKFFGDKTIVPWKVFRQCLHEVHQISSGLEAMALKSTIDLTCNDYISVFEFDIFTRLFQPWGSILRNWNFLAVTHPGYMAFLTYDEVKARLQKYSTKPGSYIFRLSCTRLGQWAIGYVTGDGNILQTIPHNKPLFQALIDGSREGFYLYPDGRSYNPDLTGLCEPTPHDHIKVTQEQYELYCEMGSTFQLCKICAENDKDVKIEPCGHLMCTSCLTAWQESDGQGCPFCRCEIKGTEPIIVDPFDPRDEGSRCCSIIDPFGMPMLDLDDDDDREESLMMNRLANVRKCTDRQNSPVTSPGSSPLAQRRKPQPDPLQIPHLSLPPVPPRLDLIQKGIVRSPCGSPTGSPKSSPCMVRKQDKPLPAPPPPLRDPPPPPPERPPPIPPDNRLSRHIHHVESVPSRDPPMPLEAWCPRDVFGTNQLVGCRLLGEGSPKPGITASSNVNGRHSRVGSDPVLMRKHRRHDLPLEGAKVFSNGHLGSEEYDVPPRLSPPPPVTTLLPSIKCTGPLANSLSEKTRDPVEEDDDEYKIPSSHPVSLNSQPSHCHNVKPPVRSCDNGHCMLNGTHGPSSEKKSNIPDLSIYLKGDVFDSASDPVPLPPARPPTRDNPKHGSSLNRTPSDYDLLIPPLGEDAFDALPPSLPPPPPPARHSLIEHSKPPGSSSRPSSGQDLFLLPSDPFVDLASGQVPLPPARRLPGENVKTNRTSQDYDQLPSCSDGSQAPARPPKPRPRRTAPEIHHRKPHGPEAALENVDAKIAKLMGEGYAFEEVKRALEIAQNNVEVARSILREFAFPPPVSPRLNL

SMILES: Cn1cnnc1CC1(c2cccc(N3Cc4c(cc(CN5[C@@H]6CC[C@H]5C[C@H](F)C6)cc4C(F)(F)F)C3=O)c2)COC1
fold change (FC) [1]: >=1.76
fold change (FC) [2]: 5
fold change (FC) [3]: >=7.5
fold change (FC) [4]: >=1.76
IC50 [5]: < 100 nM
fold change (FC) [6]: >=1.001
fold change (FC) [7]: >=0.201

IC50 [5]: < 100 nM
SMILES: Cn1cnnc1CC1(c2cccc(N3Cc4c(cc(C5=CCCOC5)cc4C(F)(F)F)C3=O)c2)COC1
FC [1]: 1.01
FC [2]: 2.51
FC [3]: 2.51
FC [4]: 1.01
FC [6]: 0.801
FC [7]: 0.101

IC50 [5]: < 100 nM
SMILES: COc1ccc2c(c1)CN(Cc1cc3c(c(C(F)(F)F)c1)CN(c1cccc(C4(Cc5nncn5C)COC4)c1)C3=O)C2
fold change (FC) [1]: 1.31
fold change (FC) [2]: >=7.5
fold change (FC) [3]: >=7.5
fold change (FC) [4]: 1.31
fold change (FC) [6]: >=1.001
fold change (FC) [7]: >=0.201

IC50 [5]: < 100 nM
SMILES: Cn1cnnc1CC1(c2cccc(N3Cc4c(cc(C5CCC5)cc4C(F)(F)F)C3=O)c2)COC1
fold change (FC) [1]: 1.31
fold change (FC) [2]: 2.51
fold change (FC) [3]: 2.51
fold change (FC) [4]: 1.01
fold change (FC) [6]: 0.801
fold change (FC) [7]: 0.101

IC50 [5]: < 100 nM
SMILES: Cn1cnnc1CC1(c2cccc(N3Cc4c(cc(CN5CCC6(CC5)CC6)cc4C(F)(F)F)C3=O)c2)COC1
fold change (FC) [1]: 1.51
fold change (FC) [2]: >=7.5
fold change (FC) [3]: >=7.5
fold change (FC) [4]: 1.51
fold change (FC) [6]: >=1.001
fold change (FC) [7]: >=0.201

IC50 [5]: < 100 nM
SMILES: Cn1cnnc1CC1(c2cccc(N3Cc4c(cc(C5CC5)nc4C4CC4)C3=O)c2)COC1
fold change (FC) [1]: 1.01
fold change (FC) [2]: 1.01
fold change (FC) [3]: 1.01
fold change (FC) [4]: 1.01
fold change (FC) [6]: 0.801
fold change (FC) [7]: 0.101

SMILES: Cn1cnnc1CC1(c2cccc(N3Cc4c(cc(CN5C6CCC5CC6)cc4C(F)(F)F)C3=O)c2)COC1
fold change (FC) [1]: 1.51
fold change (FC) [2]: >=7.5
fold change (FC) [3]: >=7.5
fold change (FC) [4]: 1.51
IC50 [5]: < 100 nM
fold change (FC) [6]: >=1.001
fold change (FC) [7]: >=0.201

SMILES: Cn1cnnc1[C@@H](F)C1(c2cccc(N3Cc4c(cc(CN5C6CCCC5CC6)cc4C(F)(F)F)C3=O)c2)COC1 (stereo in doubt; 671a)
fold change (FC) ([1]; 1 µM): >=1.76
fold change (FC) [2]: 2.51
fold change (FC) [3]: 5
fold change (FC) ([4]; 0.3 µM): 1.51
IC50 [5]: < 100 nM
fold change (FC) ([6]; 1 µM): 0.601
fold change (FC) ([7]; 1 µM): >=0.201

IC50 [5]: < 100 nM
SMILES: Cn1cnnc1CC1(c2cccc(N3Cc4c(cc(CN5CCC6(CC6)C5)cc4C(F)(F)F)C3=O)c2)CCC1
fold change (FC) [1]: 1.31
fold change (FC) [2]: >=7.5
fold change (FC) [3]: >=7.5
fold change (FC) [4]: 1.31
fold change (FC) [6]: >=1.001
fold change (FC) [7]: >=0.201

IC50 [5]: < 100 nM
SMILES: Cn1cnnc1CC1(c2cccc(NC(=O)c3cc(CN4CCC5CC54)cc(C4CC4)n3)c2)COC1 (stereo not drawn)
fold change (FC) [1]: 1.31
fold change (FC) [2]: >=7.5
fold change (FC) [3]: >=7.5
fold change (FC) [4]: 1.31
fold change (FC) [6]: >=1.001
fold change (FC) [7]: >=0.201

IC50 [5]: < 100 nM
SMILES: Cc1conc1CC1(c2cccc(NC(=O)c3cc(CN4CCC5(CC5)C4)nc(C4CC4)n3)c2)COC1
fold change (FC) [1]: 1.31
fold change (FC) [2]: >=7.5
fold change (FC) [3]: >=7.5
fold change (FC) [4]: 1.31
fold change (FC) [6]: >=1.001
fold change (FC) [7]: >=0.201

IC50 [5]: < 100 nM
SMILES: CCN1CCN(Cc2cc3c(c(C(F)(F)F)c2)CN(c2cccc(C4(Cc5nncn5C)COC4)c2)C3=O)CC1
fold change (FC) [1]: 1.31
fold change (FC) [2]: 5
fold change (FC) [3]: >=7.5
fold change (FC) [4]: 1.31
fold change (FC) [6]: >=1.001
fold change (FC) [7]: >=0.201

IC50 [5]: < 100 nM
SMILES: Cc1cc(C(=O)Nc2cccc(C3(C(F)(F)c4nncn4C)CC3)c2)nc(C2CC2)n1
fold change (FC) [1]: 1.01
fold change (FC) [2]: 1.01
fold change (FC) [3]: 2.51
fold change (FC) [4]: 1.01
fold change (FC) [6]: 0.601
fold change (FC) [7]: 0.101

IC50 [5]: < 100 nM
SMILES: CN1CCN(Cc2cc3c(c(C(F)(F)F)c2)CN(c2cccc(C4(Cc5nncn5C)COC4)c2)C3=O)CC1
fold change (FC) [1]: 1.31
fold change (FC) [2]: 2.51
fold change (FC) [3]: >=7.5
fold change (FC) [4]: 1.31
fold change (FC) [6]: >=1.001
fold change (FC) [7]: >=0.201

IC50 [5]: < 100 nM
SMILES: Cn1cnnc1CC1(c2cccc(N3Cc4c(cc(CN5CC6CC5CO6)cc4C(F)(F)F)C3=O)c2)COC1 (stereo not drawn)
fold change (FC) [1]: 1.01
fold change (FC) [2]: 2.51
fold change (FC) [3]: 5
fold change (FC) [4]: 1.01
fold change (FC) [6]: 0.801
fold change (FC) [7]: 0.051

IC50 [5]: < 100 nM
SMILES: CC[C@H](c1cc2c(c(C(F)(F)F)c1)CN(c1cccc(C3(Cc4nncn4C)COC3)c1)C2=O)N1CC[C@H](F)C1
fold change (FC) [1]: 1.51
fold change (FC) [2]: >=7.5
fold change (FC) [3]: >=7.5
fold change (FC) [4]: 1.51
fold change (FC) [6]: >=1.001
fold change (FC) [7]: >=0.201

IC50 [5]: < 100 nM
SMILES: C[C@@H](c1cc2c(c(C(F)(F)F)c1)CN(c1cccc(C3(C(F)(F)c4nncn4C)COC3)c1)C2=O)N1CC[C@H](F)C1
fold change (FC) [1]: 1.51
fold change (FC) [2]: 2.51
fold change (FC) [3]: >=7.5
fold change (FC) [4]: 1.31
fold change (FC) [6]: >=1.001
fold change (FC) [7]: >=0.201

SMILES: Cn1cnnc1CC1(c2cccc(N3Cc4c(cc(CN5C6CCCC5CC6)cc4C(F)(F)F)C3=O)c2)COC1
fold change (FC) [1]: >=1.76
fold change (FC) [2]: >=7.5
fold change (FC) [3]: >=7.5
fold change (FC) [4]: >=1.76
IC50 [5]: < 100 nM
fold change (FC) [6]: >=1.001
fold change (FC) [7]: >=0.201

IC50 [5]: < 100 nM
SMILES: Cn1cnnc1C(F)(F)C1(c2cccc(N3Cc4c(cc(CN5CC[C@H](F)C5)cc4C(F)(F)F)C3=O)c2)CC1
fold change (FC) [1]: 1.31
fold change (FC) [2]: 5
fold change (FC) [3]: >=7.5
fold change (FC) [4]: 1.01
fold change (FC) [6]: >=1.001
fold change (FC) [7]: >=0.201

IC50 [5]: < 100 nM
SMILES: Cn1cnnc1[C@@H](F)C1(c2cccc(N3Cc4c(cc(CN5CCCC5)cc4C(F)(F)F)C3=O)c2)COC1
fold change (FC) [1]: >=1.76
fold change (FC) [2]: 5
fold change (FC) [3]: >=7.5
fold change (FC) [4]: >=1.76
fold change (FC) [6]: >=1.001
fold change (FC) [7]: >=0.201

IC50 [5]: < 100 nM
SMILES: Cc1cc(C(=O)Nc2cccc([C@@]3(Cc4nncn4C)CCOC3)c2)nc(C2CC2)n1
fold change (FC) [1]: 1.01
fold change (FC) [2]: 2.51
fold change (FC) [3]: 2.51
fold change (FC) [4]: 1.01
fold change (FC) [6]: 0.801
fold change (FC) [7]: 0.101

IC50 [5]: ≤ 300 nM
SMILES: Cc1c[nH]nc1-c1cc([C@H](C)Cc2nncn2C)cc(N2Cc3c(cccc3C(F)(F)F)C2=O)n1
fold change (FC) [1]: 1.01
fold change (FC) [2]: 1.01
fold change (FC) [3]: 1.01
fold change (FC) [4]: 1.01
fold change (FC) [6]: <=0.6
fold change (FC) [7]: 0.051

IC50 [5]: < 100 nM
SMILES: COc1cccc2c1CN(Cc1cc3c(c(C(F)(F)F)c1)CN(c1cccc(C4(Cc5nncn5C)COC4)c1)C3=O)C2
fold change (FC) [1]: 1.51
fold change (FC) [2]: 5
fold change (FC) [3]: >=7.5
fold change (FC) [4]: 1.51
fold change (FC) [6]: >=1.001
fold change (FC) [7]: >=0.201

SMILES: CN1C2CCC1CN(c1cc3c(c(C(F)(F)F)c1)CN(c1cccc(C4(Cc5nncn5C)COC4)c1)C3=O)C2
fold change (FC) [1]: 1.01
fold change (FC) [2]: 2.51
fold change (FC) [3]: 5
fold change (FC) [4]: 1.01
IC50 [5]: < 100 nM
fold change (FC) [6]: >=1.001
fold change (FC) [7]: 0.151

IC50 [5]: < 100 nM
SMILES: Cn1cnnc1CC1(c2cccc(N3Cc4c(cc(CC5CCCO5)cc4C(F)(F)F)C3=O)c2)COC1 (stereo not drawn)
fold change (FC) [1]: 1.01
fold change (FC) [2]: 2.51
fold change (FC) [3]: >=7.5
fold change (FC) [4]: 1.01
fold change (FC) [6]: 0.801
fold change (FC) [7]: 0.101

IC50 [5]: < 100 nM
SMILES: Cn1cnnc1CC1(c2cccc(N3Cc4c(cc(OC5CNC5)cc4C(F)(F)F)C3=O)c2)COC1
fold change (FC) [1]: 1.01
fold change (FC) [2]: 1.01
fold change (FC) [3]: 1.01
fold change (FC) [4]: 1.01
fold change (FC) [6]: 0.801
fold change (FC) [7]: 0.051

IC50 [5]: < 100 nM
SMILES: Cn1cnnc1CC1(c2cccc(N3Cc4c(cc(CN5CC(F)C5(C)C)cc4C(F)(F)F)C3=O)c2)COC1 (stereo not drawn)
fold change (FC) [1]: 1.31
fold change (FC) [2]: 2.51
fold change (FC) [3]: 5
fold change (FC) [4]: 1.31
fold change (FC) [6]: >=1.001
fold change (FC) [7]: 0.101

IC50 [5]: < 100 nM
SMILES: Cn1cnnc1CC1(c2cccc(N3Cc4c(cc(CN5CC[C@@H](CO)C(F)(F)C5)cc4C(F)(F)F)C3=O)c2)COC1
fold change (FC) [1]: 1.31
fold change (FC) [2]: 2.51
fold change (FC) [3]: >=7.5
fold change (FC) [4]: 1.31
fold change (FC) [6]: 0.801
fold change (FC) [7]: 0.101

IC50 [5]: < 100 nM
SMILES: Cn1cnnc1CC1(c2cccc(N3Cc4c(cc(CN5CC6C(C5)C6(F)F)cc4C(F)(F)F)C3=O)c2)COC1 (stereo not drawn)
fold change (FC) [1]: 1.31
fold change (FC) [2]: 5
fold change (FC) [3]: >=7.5
fold change (FC) [4]: 1.31
fold change (FC) [6]: >=1.001
fold change (FC) [7]: >=0.201
